This note sets out measurements from the Deep4Chem optical property database.

A short description of the data set: photoluminescence quantum yield (fraction); solvent given as SMILES.

Molecules are shown by their SMILES.

Regarding `c1ccc2c(c1)ccc1c3ccccc3ccc21`, the photoluminescence quantum yield (in ClCCl) was 0.12.
As to `Fc1ccc(/C=C/c2nc3c4ccccc4c4ccccc4c3o2)cc1`, for the setting “in CC#N”, the photoluminescence quantum yield amounted to 0.24.
Molecule `O=c1oc2ccc3ccccc3c2nc1-c1ccc(Cl)cc1` came in with a photoluminescence quantum yield (in c1ccccc1) of 0.478.
Consider `COc1cc(OC)c2c(c1)C(=O)c1ccccc1-2`, for which the photoluminescence quantum yield is, setting by setting: (in C1CCCCC1) 0.026; (in CC#N) 0.0012; (in CCO) 0.
For `c1ccc(-c2nc(-c3ccccc3)nc(-c3ccc(-n4c5ccccc5c5cc6c(cc54)C4c5ccccc5C6c5ccccc54)cc3)n2)cc1`, the photoluminescence quantum yield is 0.77 (in Cc1ccccc1) and 0.4 (in O=P(c1ccccc1)(c1ccccc1)c1ccccc1Oc1ccccc1P(=O)(c1ccccc1)c1ccccc1).
In the case of `CCOC(=O)CSc1nc(-c2ccccc2)c(C)c(C#N)c1C#N`, the photoluminescence quantum yield reads like this: (in C1COCCO1) 0.031; (in CC#N) 0.036; (in CCO) 0.037; (in CCOC(C)=O) 0.037; (in ClC(Cl)Cl) 0.033; (in c1ccccc1) 0.038.
Where the note is “in C1CCOC1”, `CC(C)(C)c1cc2c3c(c1)c1cc(C(C)(C)C)cc4c1n3B1c3c-2cccc3-c2cc(C(C)(C)C)cc3c5cc(C(C)(C)C)cc-4c5n1c23` showed a photoluminescence quantum yield of 0.25.
In turn, `Cc1cc(C)c(C2=C3C=C(/C=C/C(=O)OC(C)(C)C)C=[N+]3[B-](F)(F)n3c2ccc3N2CCCC2)c(C)c1` showed a photoluminescence quantum yield (in ClCCl) of 0.57.
As for `Cc1cc(-c2ccccc2C)cc(C)[o+]1`, the photoluminescence quantum yield by setting is: (in CC#N) 0.1; (in ClCCl) 0.05.
As to `N#Cc1cc2ccc(O)cc2oc1=O`, the photoluminescence quantum yield was 0.0105 (in C1CCCCC1); 0.00102 (in C1CCOC1); 0.00059 (in CC#N); 0.0597 (in CCOC(C)=O); 0.00123 (in CS(C)=O); 0.0509 (in ClC(Cl)Cl).
In turn, `COc1cc2c(cc1-c1ccc(Cl)cc1)Cc1c3c(c4c(c1-2)-c1cc(OC)c(-c2ccc(Cl)cc2)cc1C4)C(=O)N(CCC(C)C)C3=O` yielded a photoluminescence quantum yield (in C1CCOC1) of 0.52.
In turn, `CN(C)c1ccc(-c2ccc(-c3cc(-c4ccccc4)c(-c4ccccc4)c(-c4ccccc4)c3-c3ccccc3)s2)cc1` had a photoluminescence quantum yield (in ClC(Cl)Cl) of 0.35.
Regarding `Cc1c(OCC(=O)O)cc2c3c([nH]c2c1C)C(=O)CCC3`, the photoluminescence quantum yield runs as follows: (in C1COCCO1) 0.009; (in CC#N) 0.027; (in CCO) 0.019; (in CS(C)=O) 0.089; (in O) 0.013; (in c1ccccc1) 0.008.
Molecule `C=Cc1cc2ccc(OC)cc2oc1=O` registered a photoluminescence quantum yield (in CC#N) of 0.99.
Take `CCCCCCCCCCCCC1(CCCCCCCCCCCC)c2cc(-c3ccc(C=C4C(=O)c5ccccc5C4=O)cc3)ccc2-c2ccc(-c3ccc(C=C4C(=O)c5ccccc5C4=O)cc3)cc21`: the photoluminescence quantum yield was determined as 0.046 (in C1CCOC1); 0.121 (in CC(C)=O); 0.008 (in CCCCCC); 0.228 (in CS(C)=O); 0.012 (in Cc1ccccc1); 0.013 (in ClC(Cl)Cl).
The molecule `CCCCCCn1c2cc(/C=C(\C#N)c3ccccc3)ccc2c2ccc(/C=C(\C#N)c3ccccc3)cc21` gave a photoluminescence quantum yield (in ClC(Cl)Cl) of 0.026.
On to `Nc1ccc2c(ccc3[n+]2[B-](F)(F)n2c-3cc3c4ccccc4c4ccccc4c32)c1`, for which, under “in ClCCl”, the photoluminescence quantum yield is 0.81.
For `Nc1ccccc1/C=C/C(F)(F)F`, the photoluminescence quantum yield (in C1CCOC1) came out at 0.77.
Turning to `CCCCC1(CCCC)c2cc(C#Cc3ccc4ccc5cccc6ccc3c4c56)ccc2-c2ccc(C#Cc3ccc4ccc5cccc6ccc3c4c56)cc21`, where the note is “in Cc1ccccc1”, the photoluminescence quantum yield came out at 0.99.
On to `c1ccc2c(-n3c4ccccc4c4ccccc43)cccc2c1`, for which the photoluminescence quantum yield amounted to 0.54 (in C1CCCCC1), 0.51 (in CCOC(C)=O) and 0.36 (in CO).
For the setting “in CC#N”, `c1ccc(-c2nc(-c3cccs3)[nH]c2-c2ccccc2)cc1` gave a photoluminescence quantum yield of 0.39.
Take `Cc1c2ccccc2c(C2=C3C=CC=[N+]3[B-](F)(F)n3cccc32)c2ccccc12`: the photoluminescence quantum yield (in CC#N) was 0.001; the photoluminescence quantum yield (in CCCCCC) was found to be 0.041; the photoluminescence quantum yield (in CCO) was 0.002; the photoluminescence quantum yield (in CN(C)C=O) amounted to 0.002; the photoluminescence quantum yield (in Cc1ccccc1) worked out at 0.007; the photoluminescence quantum yield (in ClCCl) worked out at 0.005.
In turn, `O=[N+]([O-])c1ccc(-c2nc3c(c4c2-c2ccccc2CC4)-c2ccccc2CC3)cc1` yielded a photoluminescence quantum yield (in CC#N) of 0.037, a photoluminescence quantum yield (in CS(C)=O) of 0.085 and a photoluminescence quantum yield (in ClCCl) of 0.059.
As to `COc1cc(N(c2ccc(C=C(C#N)C#N)c(OC)c2)c2ccc(C=C(C#N)C#N)c(OC)c2)ccc1C=C(C#N)C#N`, the photoluminescence quantum yield by setting is: (in C1COCCO1) 0.025; (in CC#N) 0.047; (in CC(C)=O) 0.074; (in CCOC(C)=O) 0.166; (in CN(C)C=O) 0.026; (in CO) 0.043. The photoluminescence quantum yield by setting is: (in Cc1ccccc1) 0.018; (in ClC(Cl)Cl) 0.025; (in ClCCl) 0.028.
`CC(C)(C)c1cc(-c2ccc3c(-c4cc(C(C)(C)C)cc(C(C)(C)C)c4)cc4c5cc(-c6cc(C(C)(C)C)cc(C(C)(C)C)c6)ccc5c(-c5cc(C(C)(C)C)cc(C(C)(C)C)c5)cc4c3c2)cc(C(C)(C)C)c1` yielded a photoluminescence quantum yield (in ClCCl) of 0.609.
Where the note is “in ClCCl”, `C(S/C=C/c1ccc(-c2ccc(/C=C/SC=C3CCCCC3)cc2)cc1)=C1CCCCC1` had a photoluminescence quantum yield of 0.238.
On the same count and under the same terms, next, `COc1ccc(C2=C3C(/C=C/c4cc(OC)c(OC)c(OC)c4)=C(C=O)C(/C=C/c4cc(OC)c(OC)c(OC)c4)=[N+]3[B-](F)(F)n3c(/C=C/c4cc(OC)c(OC)c(OC)c4)c(C=O)c(C=Cc4cc(OC)c(OC)c(OC)c4)c32)cc1`: 0.4.
In turn, `Cc1ccc(-n2c(-c3ccccc3NS(=O)(=O)c3ccc(C)cc3)nc3c4ccccc4c4ccccc4c32)cc1` registered a photoluminescence quantum yield (in Cc1ccccc1) of 0.007.
In turn, `O=C1c2ccccc2S(=O)(=O)c2ccc(-n3c4ccccc4c4ccccc43)cc21` yielded a photoluminescence quantum yield (in c1cc(-c2cccc(-n3c4ccccc4c4ccccc43)c2)cc(-n2c3ccccc3c3ccccc32)c1) of 0.296.
With `c1ccc(N2c3ccccc3Sc3cc(-c4cccc5nc6ccccc6cc45)ccc32)cc1`, the photoluminescence quantum yield (in CC#N) is 0.0076, the photoluminescence quantum yield (in CCCCCC) was 0.213, the photoluminescence quantum yield (in CCOCC) came to 0.17 and the photoluminescence quantum yield (in ClCCl) is 0.0635.
For the setting “in ClCCl”, `COc1ccccc1C1=[N+]2C(=C(c3ccccc3)c3c4c(c(-c5ccccc5OC)n3[B-]2(F)F)C2C=CC4CC2)C2=C1C1C=CC2CC1` (centres undefined) gave a photoluminescence quantum yield of 0.87.
With `COc1ccc(-c2[nH]c(=O)n3c2-c2ccccc2C3=O)c(OC)c1`, the photoluminescence quantum yield came out at 0.48 (in CC#N), 0.39 (in CO) and 0.57 (in ClCCl).
`CCC1=C(C)C2=C(c3cc(C(=O)Cl)cc(C4=C5C(C)=C(CC)C(C)=[N+]5[B-](F)(F)n5c(C)c(CC)c(C)c54)c3)c3c(C)c(CC)c(C)n3[B-](F)(F)[N+]2=C1C`: the photoluminescence quantum yield reads like this: (in C1CCOC1) 0.87; (in CC#N) 0.41; (in CN(C)C=O) 0.61; (in Cc1ccccc1) 0.83; (in ClC(Cl)Cl) 0.7.
For the setting “in ClC(Cl)Cl”, `CCCCCCCCC1(CCCCCCCC)c2cc(-c3ccccc3)ccc2-c2ccc(-c3ccccc3)cc21` came in with a photoluminescence quantum yield of 0.85.
